# Experimental data published in PMC10256634, “Comparative in vivo toxicokinetics of silver powder, nanosilver and soluble silver compounds after oral administration to rats” (Archives of Toxicology, 2023).
# How the values were obtained:
# [1] = Behaviour, homogeneity and stability of dosing formulations; assay type: physicochemical; details: oral: 1% MC (AgMP, AgNP) or purified water (AgAc, AgNO3); i.v.: 5% glucose or purified water
# Procedure: Further details are provided under Supplementary information.
# Polypropylene vessels and containers were used throughout preparation and storage to limit artefactual loss of Ag from adsorption onto surfaces (Sekine et al. [2015]). Vessels were pre-cleaned with a dilute nitric acid solution and then rinsed thoroughly with ultrapure water to remove contaminants. Chloride- or phosphate-containing vehicles and reagents were avoided to prevent Ag precipitation. Dosing formulations were prepared once for the single-dose administrations, and weekly for the repeated dose phase (divided into daily aliquots). […]
# An extensive analytical pre-testing program was performed to fully characterize the test items and develop protocols to optimise the homogeneity and stability of dosing formulations. […] The Ag^+ fraction in the silver powder (AgMP) dosing formulations was determined to be a maximum of 0.004%. […]
# To assure their accurate concentration, uniform homogeneity and physical stability, dosing formulation concentrations were analytically verified after preparation but before first administration using inductively coupled plasma mass spectrometry (ICP-MS) for determination of total Ag content. […] Samples of each formulation prepared for i.v. and single oral administration, as well as for Weeks 1 and 4 of the repeated dosing segment were analysed. […]
# [2] = Toxicokinetics after single oral gavage dose, total Ag in whole blood (ICP-MS)
# [3] = Total Ag content in tissues after 28 days repeated oral dosing (ICP-MS); assay type: in vivo, Sprague–Dawley rats
# Description: (§1) Comparative TK data for the various test items were obtained after single doses, and repeated dose administration for 28 days. This was based on measurement of Ag levels in whole blood at various timepoints, and also total Ag content in tissues (in the repeated dose study phase). This approach facilitated a direct quantitative comparison of parameters such as bioavailability, achieved systemic exposure and the delivered Ag dose to tissues after administration of the different Ag test items. Determination of single-dose p.o. and i.v. blood-level profiles was intended to provide information on absolute bioavailability (F value). Parallel vehicle control groups were included within each phase.
# Following final blood sampling, animals were euthanised using carbon dioxide asphyxiation, with subsequent exsanguination, prior to macroscopic examination for the investigation of any abnormalities. Tissues for analysis of total Ag content were obtained from animals administered the test items for 28 days. The tissue set comprised: brain (whole), bone marrow (from both femurs), small intestine (duodenum/ileum/jejenum), liver, spleen, ovaries, testes (excluding epididymides) and uterus. The luminal contents of GI tract samples were thoroughly flushed out with cold purified water. After weighing, tissues were retained frozen (− 20 °C).
# Analysis occurred within the 48-day assured stability period.
# All bioanalytical methods underwent validation before deployment.
# [4] = Absolute bioavailability (F value) from single-dose oral and i.v. blood AUC; assay type: in vivo, Sprague–Dawley rats; details: single-dose oral vs i.v. AUC; data not shown
# Procedure: as §1, with “All in vivo and analytical experimental segments were performed in accordance with Good Laboratory Practice standards (OECD [1998]) and the adopted TK experimental design conformed to approaches set out in OECD TG 417 ([2010]). Comparative” for “Comparative”
# Animals (4 per sex/per treatment level) received test item via i.v. injection or oral gavage administration. Intravenous injection (bolus) was via the tail vein. Oral gavage administration was performed using a suitable graduated syringe and a rubber catheter. Dosing volumes for i.v. and oral administration were calculated based on the individual animal bodyweights.
# [5] = single oral dose 5 mg/kg bw [Ag equivalent 3.25 AgAc, 3.2 AgNO3], female
# [6] = single oral dose 5 mg/kg bw [Ag equivalent 3.25 AgAc, 3.2 AgNO3], male
# [7] = single oral dose 175 [114 Ag] mg/kg bw, female
# [8] = single oral dose 175 [114 Ag] mg/kg bw, male
# [9] = 28 d oral 5 mg/kg bw/d [Ag equivalent 3.25 AgAc, 3.2 AgNO3]
# [10] = 28 d oral 5 mg/kg bw/d [Ag equivalent 3.25 AgAc, 3.2 AgNO3], female
# [11] = 28 d oral 5 mg/kg bw/d [Ag equivalent 3.25 AgAc, 3.2 AgNO3], male
# [12] = 28 d oral 175 [114 Ag] mg/kg bw/d
# [13] = 28 d oral 175 [114 Ag] mg/kg bw/d, female
# [14] = 28 d oral 175 [114 Ag] mg/kg bw/d, male
# [15] = single oral dose 125 [80 Ag] mg/kg bw, female
# [16] = single oral dose 125 [80 Ag] mg/kg bw, male
# [17] = 28 d oral 125 [80 Ag] mg/kg bw/d
# [18] = 28 d oral 125 [80 Ag] mg/kg bw/d, female
# [19] = 28 d oral 125 [80 Ag] mg/kg bw/d, male
smiles,measurement,setting,value
"CC(=O)[O-].[Ag+] [AgAc, Silver(I) acetate]",Behaviour in dosing vehicles,[1],Soluble up to the highest concentration of test item employed. See also Table 2
same,AUC0-t,[2]; [5],2360 ng·h/mL
same,Cmax,[2]; [5],108 ng/mL
same,DN AUC0-t,[2]; [5],726 (ng.h/mL)/(mg/kg bw/d)
same,DN AUC(0–24),[2]; [5],431 (ng.h/mL)/(mg/kg bw/d)
same,Tmax,[2]; [5],3.5 h
same,t1/2,[2]; [5],24.5 h
same,AUC0-t,[2]; [6],1430 ng·h/mL
same,Cmax,[2]; [6],71.6 ng/mL
same,DN AUC0-t,[2]; [6],440 (ng.h/mL)/(mg/kg bw/d)
same,DN AUC(0–24),[2]; [6],323 (ng.h/mL)/(mg/kg bw/d)
same,Tmax,[2]; [6],5 h
same,t1/2,[2]; [6],23.2 h
same,AUC0-t,[2]; [7],"31,100 ng.h/mL"
same,Cmax,[2]; [7],632 ng/mL
same,DN AUC0-t,[2]; [7],273 (ng.h/mL)/(mg/kg bw/d)
same,DN AUC(0–24),[2]; [7],87 (ng.h/mL)/(mg/kg bw/d)
same,Tmax,[2]; [7],15.3 h
same,t1/2,[2]; [7],25.5 h
same,AUC0-t,[2]; [8],"23,300 ng.h/mL"
same,Cmax,[2]; [8],367 ng/mL
same,DN AUC0-t,[2]; [8],204 (ng.h/mL)/(mg/kg bw/d)
same,DN AUC(0–24),[2]; [8],55 (ng.h/mL)/(mg/kg bw/d)
same,Tmax,[2]; [8],20.3 h
same,Silver level in ovary,[3]; [9],2197 ng Ag/g tissue
same,Silver level in testis,[3]; [9],167 ng Ag/g tissue
same,Silver level in uterus,[3]; [9],188 ng Ag/g tissue
same,Silver level in GI tract,[3]; [10],3797 ng Ag/g tissue
same,Silver level in bone marrow,[3]; [10],126 ng Ag/g tissue
same,Silver level in brain,[3]; [10],169 ng Ag/g tissue
same,Silver level in liver,[3]; [10],305 ng Ag/g tissue
same,Silver level in spleen,[3]; [10],990 ng Ag/g tissue
same,Silver level in GI tract,[3]; [11],2770 ng Ag/g tissue
same,Silver level in bone marrow,[3]; [11],62 ng Ag/g tissue
same,Silver level in brain,[3]; [11],142 ng Ag/g tissue
same,Silver level in liver,[3]; [11],55.4 ng Ag/g tissue
same,Silver level in spleen,[3]; [11],283 ng Ag/g tissue
same,Silver level in ovary,[3]; [12],39668 ng Ag/g tissue
same,Silver level in testis,[3]; [12],1531 ng Ag/g tissue
same,Silver level in uterus,[3]; [12],11094 ng Ag/g tissue
same,Silver level in GI tract,[3]; [13],103814 ng Ag/g tissue
same,Silver level in bone marrow,[3]; [13],46761 ng Ag/g tissue
same,Silver level in brain,[3]; [13],1455 ng Ag/g tissue
same,Silver level in liver,[3]; [13],21872 ng Ag/g tissue
same,Silver level in spleen,[3]; [13],141560 ng Ag/g tissue
same,Silver level in GI tract,[3]; [14],83211 ng Ag/g tissue
same,Silver level in bone marrow,[3]; [14],21373 ng Ag/g tissue
same,Silver level in brain,[3]; [14],1458 ng Ag/g tissue
same,Silver level in liver,[3]; [14],22660 ng Ag/g tissue
same,Silver level in spleen,[3]; [14],96379 ng Ag/g tissue
same,"Ag in tissue concentrations, comparison between test items","[3]; 28 d oral, matched 35–36 mg Ag/kg bw/d, silver acetate vs nanosilver or silver powder, nanosilver vs silver powder (except spleen of male animals), p < 0.05",significantly higher in all tissues
same,absolute bioavailability (F value),[4],≤ 5%
"O=[N+]([O-])[O-].[Ag+] [AgNO3, silver(I) nitrate]",Behaviour in dosing vehicles,[1],Soluble up to the highest concentration of test item employed. See also Table 2
same,AUC0-t,[2]; [5],4610 ng·h/mL
same,AUC(0–24),[2]; [5],1740 ng·h/mL
same,Cmax,[2]; [5],109 ng/mL
same,Tmax,[2]; [5],3.25 h
same,t1/2,[2]; [5],30.8 h
same,AUC0-t,[2]; [6],1550 ng·h/mL
same,AUC(0–24),[2]; [6],994 ng·h/mL
same,Cmax,[2]; [6],62.5 ng/mL
same,Tmax,[2]; [6],2.5 h
same,t1/2,[2]; [6],18.7 h
same,AUC0-t,[2]; [15],"18,700 ng.h/mL"
same,AUC(0–24),[2]; [15],7670 ng·h/mL
same,Cmax,[2]; [15],421 ng/mL
same,Tmax,[2]; [15],15 h
same,t1/2,[2]; [15],31.7 h
same,AUC0-t,[2]; [16],"19,400 ng.h/mL"
same,AUC(0–24),[2]; [16],5970 ng·h/mL
same,Cmax,[2]; [16],348 ng/mL
same,Tmax,[2]; [16],21 h
same,t1/2,[2]; [16],37.6 h
same,Silver level in ovary,[3]; [9],1484 ng Ag/g tissue
same,Silver level in testis,[3]; [9],231 ng Ag/g tissue
same,Silver level in uterus,[3]; [9],145 ng Ag/g tissue
same,Silver level in GI tract,[3]; [10],2438 ng Ag/g tissue
same,Silver level in bone marrow,[3]; [10],87 ng Ag/g tissue
same,Silver level in brain,[3]; [10],177 ng Ag/g tissue
same,Silver level in liver,[3]; [10],130 ng Ag/g tissue
same,Silver level in spleen,[3]; [10],722 ng Ag/g tissue
same,Silver level in GI tract,[3]; [11],1310 ng Ag/g tissue
same,Silver level in bone marrow,[3]; [11],73 ng Ag/g tissue
same,Silver level in brain,[3]; [11],142 ng Ag/g tissue
same,Silver level in liver,[3]; [11],81.7 ng Ag/g tissue
same,Silver level in spleen,[3]; [11],404 ng Ag/g tissue
same,Silver level in ovary,[3]; [17],44025 ng Ag/g tissue
same,Silver level in testis,[3]; [17],1464 ng Ag/g tissue
same,Silver level in uterus,[3]; [17],22466 ng Ag/g tissue
same,Silver level in GI tract,[3]; [18],14798 ng Ag/g tissue
same,Silver level in bone marrow,[3]; [18],25200 ng Ag/g tissue
same,Silver level in brain,[3]; [18],1019 ng Ag/g tissue
same,Silver level in liver,[3]; [18],16024 ng Ag/g tissue
same,Silver level in spleen,[3]; [18],62335 ng Ag/g tissue
same,Silver level in GI tract,[3]; [19],10592 ng Ag/g tissue
same,Silver level in bone marrow,[3]; [19],46553 ng Ag/g tissue
same,Silver level in brain,[3]; [19],1091 ng Ag/g tissue
same,Silver level in liver,[3]; [19],28859 ng Ag/g tissue
same,Silver level in spleen,[3]; [19],54070 ng Ag/g tissue
same,absolute bioavailability (F value),[4],≤ 5%
